# Reference: US20050203029A1, “Agents for treating <I>flaviviridae</I>infections” (priority 2002, published 2005)
# Peptide text beside a SMILES is read from it. * marks the point of attachment. Cbz = O=C(OCc1ccccc1)*
# Legend:
# [1] = tested on: BVDV (CP7, NADL); assay: Western blot of pelleted BVDV virions with anti-BVDV core antibodies; type: cell-based, bovine viral diarrhea virus; settings: for production of BVDV virions (pelleted virions): 24 or 48 hours of treatment; for core signal, mature and immature form of the BVDV core protein / quantity of BVDV virus as measured by the core signal: 48 hours of treatment; for quantity of BVDV virus as measured by the core signal: 150 μM
# [2] = tested on: BVDV CP7; assay: BVDV CP7 infection of MDBK cells (end point titration, RNase protection, immunofluorescence); type: cell-based, bovine viral diarrhea virus; settings: 10 nM PI after infection, 30 hours
# [3] = tested on: BVDV; assay: Electron microscopy (TEM) of BVDV-infected MDBK cells and virus supernatants; type: cell-based, bovine viral diarrhea virus
# [4] = tested on: West Nile virus; assay: West Nile virus infection of BHK-21 cells (end point titration, RNase protection, immunofluorescence); type: cell-based, West Nile flavivirus; settings: 10 nM PI after infection, 12 hours
SMILES,production of BVDV virions (pelleted virions) [1],"core signal, mature and immature form of the BVDV core protein [1]",quantity of BVDV virus as measured by the core signal [1],reduction in the number of progeny viruses released [2],"number of virus particles detected in cellular vesicles vs mock ([3]; 10 μm MG132, 30 hours)","ratio of completely assembled to incompletely assembled virions ([3]; 10 μm MG132, 30 hours)",morphology of secreted viruses vs wild-type viruses ([3]; supernatants of PI-treated vs mock-treated cells),reduction in the number of progeny viruses released [4],reduction in the rate of RNA replication (factor) [2],reduction in the rate of RNA replication (factor) [4]
"CC(C)C[C@@H](C=O)NC(=O)[C@H](CC(C)C)NC(=O)[C@H](CC(C)C)NC(=O)OCc1ccccc1 [MG132, N-carbobenzoxy-L-leucinyl-L-leucinyl-L-leucinal] (Cbz-Leu-Leu-Leu-aldehyde)",block the production of BVDV virions,dose-dependent decrease,10%,several log steps,significantly smaller number of virus particles,shifted significantly in favor of incompletely assembled virus particles,changed markedly,several log steps,,
CC(=O)N[C@@H](CSC(=O)[C@]1([C@@H](O)C(C)C)NC(=O)[C@H](C)[C@@H]1O)C(=O)O [lactacystin],block the production of BVDV virions,dose-dependent decrease,10%,slight,,,,slight,slight,slight
